The record followed here is article PMC6450895, “A fungal substrate mimicking molecule suppresses plant immunity via an inter-kingdom conserved motif” (Nature Communications, 2019).

Experiment [1] relates to proteases of maize apoplastic fluid processing UmPit2. In words: Effect of protease inhibitors on processing of UmPit2 in maize apoplastic fluid. It counts as biochemical. Particulars: apoplastic fluid preincubated with inhibitor 10 min; 0, 15, 30 min. The procedure: Fig. 5 PLCPs cleave UmPit2 in the apoplast. a Input used to perform inhibitory test of Pit2 stability. Heterologous expressed UmPit2 and maize AF at different time points during the experiment. b Addition of E-64 stabilizes Pit2 degradation. Four inhibitors for main classes of proteases: E-64 for cysteine proteases, DCI for serine hydrolases, EDTA for metalloproteases and Pepstatin A for aspartic proteases were preincubated with maize AF for 10 min. Pit2 degradation was analyzed over time (0, 15 and 30 min) using SyproRuby staining. c Inhibition of cysteine proteases stabilizes Pit2 in the apoplast. Maize AF was coincubated with a mix of inhibitors containing DCI [10 µM], EDTA [1 mM] and Pepstatin A [10 µM] (Inh. Mix) with or without E-64 [10 µM]. As a control the noninhibitor sample containing DMSO is shown. d Fractionation of SA-treated apoplastic fluid by anion-exchange chromatography. […] F-24 was preincubated with 10 µM E-64 or DMSO followed by addition of purified UmPit2. Samples were incubated for 0, 15 and 30 min and analyzed by gel electrophoresis using SyproRuby. f UmPit2 is processed at similar rates as an endogenous maize substrate. UmPit2 as well as the endogenous maize PLCP substrate Prozip11 were heterologous expressed in E-coli. 3.2 µM proteins were coincubated with F-24 pretreated with inhibitor mix (Inh. mix) in the presence or absence of E-64. Processing of Prozip11 and UmPit2 has been monitored over time. Samples were analyzed by gel electrophoresis and stained with SyproRuby for visualization. As a control purified proteins as well as F-24 were loaded on gel (right gel). DMSO dimethyl sulfoxide, DCI 3,4-dichloroisocoumarin
(§1) Approximately 41 µg/ml heterologous expressed UmPit2 and UhPit2 proteins (concentration calculated with the previously described semi-quantitative approach based on SyproRuby) were incubated with or without apoplastic fluids (ca. 200 µg/ml) over time. Reaction was stopped by adding 2× SDS-gel loading buffer) and samples were analyzed by gel electrophoresis and SyproRuby staining (Invitrogen, Paisley, UK). Inhibition of apoplastic fluids containing specific inhibitors was performed as described in the main text. E-64 and pepstatin A were diluted in DMSO at a desired concentration. DCI was diluted in dimethyl formamide. All compounds have been purchased by Sigma-Aldrich (Taufkirchen, Germany). Stability experiments using F-24 were performed using ca. 1.4 µg/µl of the fraction and 3.2 µM of heterologous expressed UmPit2 or […].

In experiment [2] the test system is F-24 (PLCP-enriched fraction of maize apoplastic fluid). In words: Stability/processing in PLCP-enriched fraction F-24 (SDS gel, SyproRuby). It counts as in vitro ADME. Particulars: F-24 preincubated with 50 µM / 10 µM E-64. How it is done: as §1
In experiment [3] the test system is PLCPs of fractionated maize apoplastic fluid. Briefly: PLCP activity of anion-exchange fractions, substrate Z-Phe-Arg-AMC. It counts as biochemical. The procedure:
Fig. 5 PLCPs cleave UmPit2 in the apoplast. a Input used to perform inhibitory test of Pit2 stability. Heterologous expressed UmPit2 and maize AF at different time points during the experiment. b Addition of E-64 stabilizes Pit2 degradation. Four inhibitors for main classes of proteases: E-64 for cysteine proteases, DCI for serine hydrolases, EDTA for metalloproteases and Pepstatin A for aspartic proteases were preincubated with maize AF for 10 min. Pit2 degradation was analyzed over time (0, 15 and 30 min) using SyproRuby staining. c Inhibition of cysteine proteases stabilizes Pit2 in the apoplast. […] Samples were incubated for 0, 15 and 30 min and analyzed by gel electrophoresis using SyproRuby. f UmPit2 is processed at similar rates as an endogenous maize substrate. […] Processing of Prozip11 and UmPit2 has been monitored over time. Samples were analyzed by gel electrophoresis and stained with SyproRuby for visualization. […]
Activity of PLCPs present in isolated apoplastic fluids was monitored using 10 µM final concentration of the fluorogenic substrate Z-Phe-Arg-7-amido-4-methylcoumarin (Sigma-Aldrich, Taufkirchen, Germany). AMC released (RFU) over time was monitored at 460 nm using a Tecan Infinite M200 PRO plate reader (Tecan Group Ltd., Männedorf, Switzerland). […] The inhibitor control was used to normalize all measurements and obtain a read-out for specific PLCP activity. […]

Experiment [4] has as its system apoplastic PLCPs of barley. In words: Apoplastic PLCP activity in SA-treated barley. Particulars: Supplementary Fig. 9. It counts as in vivo.

Entries after “also recorded” stand apart in the source; their conditions may differ.

With `O=c1oc(Cl)c(Cl)c2ccccc12` [DCI, 3,4-dichloroisocoumarin], the “effect on processing of UmPit2 in maize apoplastic fluid (in words)” value (shortened to “effect on processing of UmPit2”) in experiment [1] was “Processing of UmPit2 was observed gradually”. On to `CC(C)C[C@H](NC(=O)[C@H]1O[C@@H]1C(=O)O)C(=O)NCCCCN=C(N)N` [E-64], for which the “effect of E-64 on processing by F-24 (in words)” value in experiment [2] was “stabilized in the fraction preincubated with E-64; also recorded: stabilization of Prozip1 and UmPit2”. Moreover, in experiment [3], the “PLCP activity of fractions with inhibitor (in words)” value was “did not show any activity”. For the same molecule, the “effect on processing of UmPit2” value in experiment [1] is “E-64 stabilizes UmPit2”. Take `O=C(O)CN(CCN(CC(=O)O)CC(=O)O)CC(=O)O` [EDTA]: the “effect on processing of UmPit2” value in experiment [1] is on record as “Processing of UmPit2 was observed gradually”. In the case of `O=C(O)c1ccccc1O` [SA, salicylic acid], the “induction of apoplastic PLCPs by SA (in words)” value in experiment [4] is reported as “not found in barley”. Regarding pepstatin-A, in experiment [1], the “effect on processing of UmPit2” value is “Processing of UmPit2 was observed gradually”.
